Reference: ChEMBL document CHEMBL4602617, “Discovery and optimization of heteroaryl piperazines as potent and selective PI3Kδ inhibitors” (Bioorg Med Chem Lett, 2020)
pIC50: −log10 of the molar value.

How the values were obtained:
[1] = Volume of drug distribution in rat at 0.5 mg/kg, iv or 1 mg/kg, po; type: ADME, organism-based; conditions: in vivo
[2] = target: Calcium/calmodulin-dependent protein kinase type 1D (Homo sapiens, UniProt Q8IU85); test: Inhibition of recombinant full length human His-tagged CAMK1delta expressed in baculovirus expression system using serine/threonine-25 peptide as substrate incubated for 60 mins in presence of ATP by Z'-LYTE assay
Sphingosine kinase 1 = Sphingosine kinase 1 (Homo sapiens, UniProt Q9NYA1); test: Inhibition of recombinant full length human GST-tagged SPHK1 expressed in baculovirus expression system using sphingosine lipid as substrate incubated for 60 mins in presence of ATP by Adapta assay
[3] = target: Melanocyte-stimulating hormone receptor (Homo sapiens) (UniProt Q01726); test: Displacement of [125I]NDP-alpha-MSH from full length human recombinant MC1 receptor expressed in CHO-K1 cells at 10 uM measured after 120 mins by radiometric scintillation analysis relative to control; type: cell-based
[4] = target: Glycine receptor (Rattus norvegicus) (UniProt P22771+P24524+P07727+P20781); test: Displacement of [3H]strychnine from glycine ion channel in Wistar rat spinal cord membranes at 10 uM incubated for 10 mins by radiometric scintillation analysis relative to control; type: cell membranes; conditions: Membrane
[5] = target: Casein kinase I isoform delta (Homo sapiens, UniProt P48730); test: Inhibition of recombinant human full-length GST-tagged CSNK1D expressed in baculovirus expression system using FRET-labeled Ser/Thr 11 peptide as substrate measured after 1 hr in presence of ATP by Z'-lyte assay
[6] = target: Serine/threonine-protein kinase Nek4 (Homo sapiens, UniProt P51957); test: Inhibition of recombinant full length human GST-tagged NEK4 expressed in baculovirus expression system using serine/threonine-7 peptide as substrate incubated for 60 mins in presence of ATP by Z'-LYTE assay
Chain of Serine/threonine-protein kinase Nek4 (P51957 whole entry): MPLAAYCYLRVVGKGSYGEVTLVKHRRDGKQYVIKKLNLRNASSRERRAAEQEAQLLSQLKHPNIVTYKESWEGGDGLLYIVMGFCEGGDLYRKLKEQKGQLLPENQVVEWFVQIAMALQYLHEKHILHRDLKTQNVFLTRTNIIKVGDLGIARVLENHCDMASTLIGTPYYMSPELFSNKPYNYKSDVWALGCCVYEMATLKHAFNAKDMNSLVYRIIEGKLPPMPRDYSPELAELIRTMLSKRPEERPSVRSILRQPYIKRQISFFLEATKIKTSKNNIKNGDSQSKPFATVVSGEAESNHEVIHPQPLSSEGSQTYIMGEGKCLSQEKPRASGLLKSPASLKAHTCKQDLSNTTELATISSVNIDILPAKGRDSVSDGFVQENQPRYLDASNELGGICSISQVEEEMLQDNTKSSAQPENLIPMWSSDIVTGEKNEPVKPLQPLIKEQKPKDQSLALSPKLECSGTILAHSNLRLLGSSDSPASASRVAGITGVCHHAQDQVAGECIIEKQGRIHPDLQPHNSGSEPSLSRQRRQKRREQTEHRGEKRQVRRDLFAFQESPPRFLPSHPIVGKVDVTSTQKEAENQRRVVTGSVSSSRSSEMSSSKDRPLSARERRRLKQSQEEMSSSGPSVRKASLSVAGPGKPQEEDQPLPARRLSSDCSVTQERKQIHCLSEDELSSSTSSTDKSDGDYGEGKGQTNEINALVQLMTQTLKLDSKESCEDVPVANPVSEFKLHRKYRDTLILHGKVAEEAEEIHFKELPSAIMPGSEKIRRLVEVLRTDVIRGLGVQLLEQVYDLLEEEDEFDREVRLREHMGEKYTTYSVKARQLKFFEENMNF

Chain of Sphingosine kinase 1 (Q9NYA1 whole entry): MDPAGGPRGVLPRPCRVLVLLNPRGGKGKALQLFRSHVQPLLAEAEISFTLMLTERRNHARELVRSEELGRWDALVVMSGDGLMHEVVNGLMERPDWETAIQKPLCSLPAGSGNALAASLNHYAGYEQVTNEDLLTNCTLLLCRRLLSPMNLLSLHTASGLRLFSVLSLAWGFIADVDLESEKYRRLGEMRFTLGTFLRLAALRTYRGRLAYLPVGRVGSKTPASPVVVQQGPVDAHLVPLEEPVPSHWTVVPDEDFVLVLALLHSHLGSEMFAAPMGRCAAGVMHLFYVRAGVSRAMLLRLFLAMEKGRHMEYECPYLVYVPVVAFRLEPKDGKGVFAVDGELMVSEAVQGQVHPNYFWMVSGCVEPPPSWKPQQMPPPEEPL
Chain of Glycine receptor (Rattus norvegicus) (P07727 whole entry, looked up, canonical isoform): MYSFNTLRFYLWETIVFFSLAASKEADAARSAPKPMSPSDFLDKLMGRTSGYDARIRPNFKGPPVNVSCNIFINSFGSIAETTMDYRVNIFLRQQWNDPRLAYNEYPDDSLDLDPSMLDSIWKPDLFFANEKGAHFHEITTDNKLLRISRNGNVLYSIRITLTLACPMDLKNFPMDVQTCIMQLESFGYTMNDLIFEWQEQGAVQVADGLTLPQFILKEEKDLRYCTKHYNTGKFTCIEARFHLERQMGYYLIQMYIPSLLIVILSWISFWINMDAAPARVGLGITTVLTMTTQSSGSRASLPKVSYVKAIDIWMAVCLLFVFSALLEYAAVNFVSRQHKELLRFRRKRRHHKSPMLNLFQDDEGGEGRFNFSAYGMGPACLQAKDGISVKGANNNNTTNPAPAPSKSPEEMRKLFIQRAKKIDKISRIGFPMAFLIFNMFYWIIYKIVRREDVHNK
Chain of Glycine receptor (Rattus norvegicus) (P20781 whole entry, looked up, canonical isoform): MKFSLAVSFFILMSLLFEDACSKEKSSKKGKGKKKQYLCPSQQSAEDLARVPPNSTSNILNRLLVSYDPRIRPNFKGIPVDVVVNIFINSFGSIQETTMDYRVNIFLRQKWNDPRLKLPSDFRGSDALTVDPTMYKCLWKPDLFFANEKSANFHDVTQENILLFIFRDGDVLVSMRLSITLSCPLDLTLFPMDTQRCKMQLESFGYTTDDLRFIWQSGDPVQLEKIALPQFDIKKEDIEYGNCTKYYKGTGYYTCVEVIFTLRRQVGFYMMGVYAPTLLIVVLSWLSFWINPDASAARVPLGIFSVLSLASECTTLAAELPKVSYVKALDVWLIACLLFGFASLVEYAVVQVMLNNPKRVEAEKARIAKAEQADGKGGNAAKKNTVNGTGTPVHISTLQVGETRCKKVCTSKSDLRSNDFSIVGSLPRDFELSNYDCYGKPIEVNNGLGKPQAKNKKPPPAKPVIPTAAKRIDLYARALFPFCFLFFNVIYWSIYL
Chain of Glycine receptor (Rattus norvegicus) (P22771 whole entry, looked up, canonical isoform): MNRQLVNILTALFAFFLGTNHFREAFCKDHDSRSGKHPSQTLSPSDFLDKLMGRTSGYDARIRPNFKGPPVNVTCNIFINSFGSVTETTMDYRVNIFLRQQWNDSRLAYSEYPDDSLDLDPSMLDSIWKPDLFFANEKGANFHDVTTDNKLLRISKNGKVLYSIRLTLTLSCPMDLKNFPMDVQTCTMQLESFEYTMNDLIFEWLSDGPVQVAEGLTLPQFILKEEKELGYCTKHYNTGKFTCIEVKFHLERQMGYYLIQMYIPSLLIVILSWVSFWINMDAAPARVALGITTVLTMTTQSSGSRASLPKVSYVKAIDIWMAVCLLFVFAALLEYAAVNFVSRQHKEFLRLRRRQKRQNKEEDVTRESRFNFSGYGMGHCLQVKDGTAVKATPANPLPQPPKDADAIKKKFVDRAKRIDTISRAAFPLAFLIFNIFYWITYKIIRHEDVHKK
Chain of Glycine receptor (Rattus norvegicus) (P24524 whole entry, looked up, canonical isoform): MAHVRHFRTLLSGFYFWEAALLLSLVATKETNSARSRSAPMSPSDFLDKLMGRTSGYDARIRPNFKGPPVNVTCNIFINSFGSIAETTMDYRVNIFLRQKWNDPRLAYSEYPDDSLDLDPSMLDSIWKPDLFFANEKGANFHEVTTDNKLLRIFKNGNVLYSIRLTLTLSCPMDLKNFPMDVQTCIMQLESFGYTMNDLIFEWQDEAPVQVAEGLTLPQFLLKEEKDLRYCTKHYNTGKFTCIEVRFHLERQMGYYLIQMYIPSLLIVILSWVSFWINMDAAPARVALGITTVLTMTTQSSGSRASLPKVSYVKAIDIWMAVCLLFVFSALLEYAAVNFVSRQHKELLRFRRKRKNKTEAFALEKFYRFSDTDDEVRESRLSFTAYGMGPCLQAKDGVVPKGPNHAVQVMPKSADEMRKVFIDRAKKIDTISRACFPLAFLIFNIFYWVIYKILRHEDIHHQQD
Chain of Melanocyte-stimulating hormone receptor (Homo sapiens) (Q01726 whole entry, looked up): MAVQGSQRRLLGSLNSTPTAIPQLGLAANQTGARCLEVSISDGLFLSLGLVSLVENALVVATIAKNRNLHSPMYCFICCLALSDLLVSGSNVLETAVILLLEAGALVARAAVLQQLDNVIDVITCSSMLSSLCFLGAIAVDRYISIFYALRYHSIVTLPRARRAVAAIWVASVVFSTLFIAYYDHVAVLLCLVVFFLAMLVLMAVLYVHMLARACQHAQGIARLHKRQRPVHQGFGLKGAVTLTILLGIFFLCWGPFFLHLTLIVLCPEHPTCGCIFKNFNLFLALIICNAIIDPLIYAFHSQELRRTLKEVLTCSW
Chain of Casein kinase I isoform delta (P48730 whole entry, canonical isoform): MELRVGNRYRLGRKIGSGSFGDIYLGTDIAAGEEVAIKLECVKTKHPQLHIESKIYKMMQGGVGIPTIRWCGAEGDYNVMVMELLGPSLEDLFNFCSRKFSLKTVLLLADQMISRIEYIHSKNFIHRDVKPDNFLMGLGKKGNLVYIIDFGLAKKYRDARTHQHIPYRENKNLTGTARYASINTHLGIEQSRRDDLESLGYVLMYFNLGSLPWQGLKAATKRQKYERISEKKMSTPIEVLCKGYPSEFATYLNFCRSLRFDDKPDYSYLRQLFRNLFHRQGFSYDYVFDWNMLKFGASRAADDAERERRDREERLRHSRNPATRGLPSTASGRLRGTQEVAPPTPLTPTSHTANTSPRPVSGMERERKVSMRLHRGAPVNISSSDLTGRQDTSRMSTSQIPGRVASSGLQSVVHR
Chain of Calcium/calmodulin-dependent protein kinase type 1D (Q8IU85 whole entry): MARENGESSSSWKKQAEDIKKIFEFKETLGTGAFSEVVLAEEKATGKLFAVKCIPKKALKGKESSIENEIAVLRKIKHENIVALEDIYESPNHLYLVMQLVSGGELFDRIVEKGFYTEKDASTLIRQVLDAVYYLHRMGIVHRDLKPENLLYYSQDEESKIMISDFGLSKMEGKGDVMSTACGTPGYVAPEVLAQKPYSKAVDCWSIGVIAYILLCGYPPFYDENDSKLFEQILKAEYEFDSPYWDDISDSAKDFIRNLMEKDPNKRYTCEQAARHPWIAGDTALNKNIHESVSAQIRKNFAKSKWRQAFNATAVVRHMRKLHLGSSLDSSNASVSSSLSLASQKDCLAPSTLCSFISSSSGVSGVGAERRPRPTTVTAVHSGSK

C[C@@H]1C[C@H]1C(=O)N1CCN(c2cnc(C#N)c(-c3cnn(C)c3)n2)C[C@H]1C
Vd [1]: 1.1 L/kg | pIC50 [2]: < 4.00 | pIC50 (Sphingosine kinase 1): 4.86 | inhibition [3]: 3% | inhibition [4]: 3% | pIC50 [5]: < 4.00 | pIC50 [6]: < 4.00
